This passage reports inhibition results from ChEMBL document CHEMBL6103653, “Alstolarsines A-E, Indoline Alkaloids with Two Different Carbon Skeletons from Alstonia scholaris” (J Nat Prod, 2025).

By inhibition is commonly meant how much of the control response was suppressed.

The species named for one test is Homo sapiens. The test is described as follows: Inhibition of DRAK2 autophosphorylation (unknown origin) at 20 microg/ml by ADP-Glo assay relative to control. To be noted: dose 20.0 µg/ml.
Test [1] addresses T1, ATP-citrate synthase (Homo sapiens) (UniProt P53396).
T1 sequence (whole entry): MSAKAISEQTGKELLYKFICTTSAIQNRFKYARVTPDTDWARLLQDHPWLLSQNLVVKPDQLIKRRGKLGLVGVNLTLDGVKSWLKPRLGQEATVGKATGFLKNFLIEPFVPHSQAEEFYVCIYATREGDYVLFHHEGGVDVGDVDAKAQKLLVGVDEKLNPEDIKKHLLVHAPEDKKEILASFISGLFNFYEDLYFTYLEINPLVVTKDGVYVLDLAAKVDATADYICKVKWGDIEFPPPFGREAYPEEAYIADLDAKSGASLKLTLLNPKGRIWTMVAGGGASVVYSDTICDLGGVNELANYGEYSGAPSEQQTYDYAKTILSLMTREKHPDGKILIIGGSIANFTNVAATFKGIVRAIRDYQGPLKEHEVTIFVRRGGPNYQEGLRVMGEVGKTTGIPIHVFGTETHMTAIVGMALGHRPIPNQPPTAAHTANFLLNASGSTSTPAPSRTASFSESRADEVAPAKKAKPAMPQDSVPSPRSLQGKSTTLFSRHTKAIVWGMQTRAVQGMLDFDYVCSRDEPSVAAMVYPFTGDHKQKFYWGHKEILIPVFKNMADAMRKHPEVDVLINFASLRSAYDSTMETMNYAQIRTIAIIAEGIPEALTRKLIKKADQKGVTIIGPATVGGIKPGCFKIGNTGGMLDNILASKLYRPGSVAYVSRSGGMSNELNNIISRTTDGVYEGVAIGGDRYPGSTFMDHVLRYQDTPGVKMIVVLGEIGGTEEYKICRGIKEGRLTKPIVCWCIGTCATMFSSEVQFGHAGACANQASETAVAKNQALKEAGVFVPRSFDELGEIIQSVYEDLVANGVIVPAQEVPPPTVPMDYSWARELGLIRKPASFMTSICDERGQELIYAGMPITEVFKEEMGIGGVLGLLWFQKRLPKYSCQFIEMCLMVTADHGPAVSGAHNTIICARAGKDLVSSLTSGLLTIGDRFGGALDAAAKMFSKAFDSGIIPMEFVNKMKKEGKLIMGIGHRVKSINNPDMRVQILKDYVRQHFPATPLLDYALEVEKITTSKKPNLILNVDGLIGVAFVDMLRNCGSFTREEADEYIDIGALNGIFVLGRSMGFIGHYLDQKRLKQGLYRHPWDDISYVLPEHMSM
Briefly: Inhibition of ATP citrate lyase (unknown origin) at 20 microg/ml by ADP-Glo assay relative to control. Particulars: dose 20.0 µg/ml. For orientation: ADP-Glo first removes unused ATP, then detects ADP through luciferase.

In the case of `C/C=C1/C[N@@+]2(C)CC[C@@]34c5ccccc5N[C@]32C(=O)[C@H]2[C@@H]1[C@]4(C(=O)[O-])CO[C@@H]2C`, the results for the inhibition (in the test listed under Homo sapiens; in test [1]) were 49.2% and 17%, respectively.
The matching figures for `C/C=C1/C[N@@+]2(C)CC[C@@]34c5ccccc5N[C@]32C(=O)[C@@H]2COC[C@@]4(C(=O)[O-])[C@H]12`: 47.7% and 49.2%.
Taken in the same sequence, the figures for `C/C=C1/C[N@@+]2(C)CC[C@@]34c5ccccc5N[C@]32C(=O)[C@]2(C)OC[C@@]4(C(=O)[O-])[C@H]12` were 4.5% and 5.5%.
In the case of `C/C=C1/C[N@@+]2(C)CC[C@@]34c5ccccc5N[C@]32C(=O)[C@@H]2[C@H](C)OC[C@@]4(C(=O)[O-])[C@H]12`, the inhibition in the test filed under Homo sapiens is 16.5%; in test [1], 5.1%.
